Assay results taken from ChEMBL document CHEMBL4229332, “Novel multi-target azinesulfonamides of cyclic amine derivatives as potential antipsychotics with pro-social and pro-cognitive effects” (Eur J Med Chem, 2018).

Experiments:
[1] = target: T1, 5-hydroxytryptamine receptor 1A (Homo sapiens, UniProt P08908); assay: Partial agonist activity at human 5-HT1AR expressed in CHO-K1 cells assessed as increase in cAMP accumulation by chemiluminescence-based assay; type: functional, cell-based
T1 sequence (P08908 whole entry): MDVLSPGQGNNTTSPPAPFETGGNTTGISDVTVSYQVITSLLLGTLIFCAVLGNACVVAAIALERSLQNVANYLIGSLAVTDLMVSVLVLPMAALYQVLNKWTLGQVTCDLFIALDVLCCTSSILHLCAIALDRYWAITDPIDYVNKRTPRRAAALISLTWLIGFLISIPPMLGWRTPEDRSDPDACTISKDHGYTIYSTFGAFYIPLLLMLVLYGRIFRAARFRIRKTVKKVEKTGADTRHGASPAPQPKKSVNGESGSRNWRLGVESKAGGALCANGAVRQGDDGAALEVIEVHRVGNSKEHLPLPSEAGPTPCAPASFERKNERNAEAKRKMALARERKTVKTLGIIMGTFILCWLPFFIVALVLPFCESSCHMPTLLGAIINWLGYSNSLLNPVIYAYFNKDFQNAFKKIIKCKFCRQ

[2] = target: T2, 5-hydroxytryptamine receptor 1A (Homo sapiens) (UniProt P08908); assay: Partial agonist activity at human 5-HT1AR expressed in CHO-K1 cells assessed as increase in calcium flux by fluorimetric method; type: functional, cell-based
T2 sequence (whole entry): T1 sequence (P08908 whole entry)

[3] = tested on: Rattus norvegicus; assay: Reversal of ketamine-induced cognitive flexibility in ip dosed Sprague-Dawley rat administered 30 mins prior to ketamine administration by attentional set-shifting test; type: functional; conditions: read-out: MED
[4] = target: D(3) dopamine receptor (Homo sapiens) (UniProt P35462); assay: Displacement of [3H]-methyl-spiperone from human dopamine D3 receptor expressed in CHO cells at 10^-6 M after 60 mins by scintillation counting method relative to control; type: cell-based
Sequence of D(3) dopamine receptor (Homo sapiens) (P35462 whole entry): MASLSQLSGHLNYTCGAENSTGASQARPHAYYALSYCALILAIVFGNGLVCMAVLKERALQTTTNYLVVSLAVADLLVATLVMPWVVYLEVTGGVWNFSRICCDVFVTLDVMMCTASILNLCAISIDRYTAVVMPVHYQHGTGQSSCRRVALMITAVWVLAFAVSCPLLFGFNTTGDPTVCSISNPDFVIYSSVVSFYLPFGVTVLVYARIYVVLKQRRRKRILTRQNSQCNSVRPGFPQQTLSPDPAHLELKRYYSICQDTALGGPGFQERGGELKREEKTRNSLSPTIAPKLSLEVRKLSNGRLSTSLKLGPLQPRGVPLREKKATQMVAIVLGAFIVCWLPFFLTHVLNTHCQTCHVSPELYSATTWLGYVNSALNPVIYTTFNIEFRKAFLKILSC

[5] = target: D(2) dopamine receptor (Homo sapiens) (UniProt P14416); assay: Antagonist activity at human D2LR expressed in CHO-K1 cells assessed as inhibition of dopamine-induced cAMP accumulation at 10^-6 M by chemiluminescence-based assay; type: functional, cell-based
Sequence of D(2) dopamine receptor (Homo sapiens) (P14416 whole entry): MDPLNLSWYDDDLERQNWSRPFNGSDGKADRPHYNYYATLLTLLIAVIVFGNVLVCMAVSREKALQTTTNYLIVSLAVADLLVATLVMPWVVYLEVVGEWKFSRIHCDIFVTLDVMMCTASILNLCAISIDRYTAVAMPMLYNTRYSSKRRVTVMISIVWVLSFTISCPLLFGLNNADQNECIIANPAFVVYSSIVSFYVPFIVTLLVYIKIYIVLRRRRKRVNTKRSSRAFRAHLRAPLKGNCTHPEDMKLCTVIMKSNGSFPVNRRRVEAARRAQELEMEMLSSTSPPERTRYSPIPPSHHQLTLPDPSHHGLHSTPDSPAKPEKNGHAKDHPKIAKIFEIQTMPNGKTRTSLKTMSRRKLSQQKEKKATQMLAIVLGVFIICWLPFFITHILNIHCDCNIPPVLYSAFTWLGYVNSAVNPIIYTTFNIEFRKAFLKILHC

[6] = Cmax in Wistar rat plasma at 9 mg/kg per os administered as a single dose by LC-MS/MS analysis; type: ADME, organism-based; parameters: dose 9 mg/kg; conditions: po
[7] = target: Muscarinic acetylcholine receptor M1 (Homo sapiens) (UniProt P11229); assay: Displacement of [3H]-pirenzepine from human muscarinic acetylcholine M1 receptor expressed in CHO cells at 10^-6 M after 60 mins by scintillation counting method relative to control; type: cell-based
Sequence of Muscarinic acetylcholine receptor M1 (Homo sapiens) (P11229 whole entry): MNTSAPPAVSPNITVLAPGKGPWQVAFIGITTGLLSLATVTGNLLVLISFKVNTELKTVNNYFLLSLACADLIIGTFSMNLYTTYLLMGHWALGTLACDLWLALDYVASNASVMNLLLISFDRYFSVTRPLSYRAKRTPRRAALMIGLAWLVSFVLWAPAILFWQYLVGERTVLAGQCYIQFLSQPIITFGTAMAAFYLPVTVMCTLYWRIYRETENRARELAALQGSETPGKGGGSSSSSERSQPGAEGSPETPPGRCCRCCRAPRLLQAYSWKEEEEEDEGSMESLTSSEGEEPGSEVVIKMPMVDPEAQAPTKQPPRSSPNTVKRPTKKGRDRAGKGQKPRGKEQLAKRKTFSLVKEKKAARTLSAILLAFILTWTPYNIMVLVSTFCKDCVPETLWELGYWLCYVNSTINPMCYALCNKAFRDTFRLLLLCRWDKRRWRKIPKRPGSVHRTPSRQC

[8] = target: 5-hydroxytryptamine receptor 1D (Rattus norvegicus) (UniProt P28565); assay: Antagonist activity at rat 5-HT1DR expressed in CHO cells assessed as inhibition of serotonin-induced response by cellular dielectric spectroscopy; type: functional, cell-based
Sequence of 5-hydroxytryptamine receptor 1D (Rattus norvegicus) (P28565 whole entry): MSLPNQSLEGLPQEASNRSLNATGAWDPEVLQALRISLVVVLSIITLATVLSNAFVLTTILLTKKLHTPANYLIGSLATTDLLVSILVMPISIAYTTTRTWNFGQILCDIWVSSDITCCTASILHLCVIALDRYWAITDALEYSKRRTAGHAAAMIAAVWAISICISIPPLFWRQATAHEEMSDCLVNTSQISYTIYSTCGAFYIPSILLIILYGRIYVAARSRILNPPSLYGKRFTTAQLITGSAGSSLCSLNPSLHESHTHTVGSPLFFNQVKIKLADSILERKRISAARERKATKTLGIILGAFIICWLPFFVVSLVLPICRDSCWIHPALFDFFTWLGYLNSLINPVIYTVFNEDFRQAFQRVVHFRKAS

[9] = target: T3, 5-hydroxytryptamine receptor 6 (Homo sapiens, UniProt P50406); assay: Displacement of [3H]LSD from human recombinant 5-HT6 receptor at 10^-6 M after 120 mins by scintillation counting analysis relative to control
T3 sequence (P50406 whole entry): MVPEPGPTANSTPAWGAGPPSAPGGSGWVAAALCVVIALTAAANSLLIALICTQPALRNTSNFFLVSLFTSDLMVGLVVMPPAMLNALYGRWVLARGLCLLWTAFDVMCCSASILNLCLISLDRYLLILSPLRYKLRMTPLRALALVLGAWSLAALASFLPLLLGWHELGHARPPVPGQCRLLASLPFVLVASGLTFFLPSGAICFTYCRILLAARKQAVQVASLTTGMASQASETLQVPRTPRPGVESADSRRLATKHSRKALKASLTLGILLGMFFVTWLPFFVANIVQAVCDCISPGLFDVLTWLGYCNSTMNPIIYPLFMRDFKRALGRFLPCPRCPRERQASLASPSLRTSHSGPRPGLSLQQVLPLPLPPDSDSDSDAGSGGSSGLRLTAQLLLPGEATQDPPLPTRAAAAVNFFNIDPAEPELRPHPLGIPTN

[10] = target: D(3) dopamine receptor (Homo sapiens) (UniProt P35462); assay: Antagonist activity at human D3R expressed in CHO-K1 cells assessed as inhibition of […] cAMP accumulation at 10^-6 M by chemiluminescence-based assay; type: functional, cell-based
[11] = target: T4, 5-hydroxytryptamine receptor 7 (Homo sapiens, UniProt P34969); assay: Displacement of [3H]LSD from human recombinant 5-HT7 receptor at 10^-6 M after 120 mins by scintillation counting analysis relative to control
T4 sequence (P34969 whole entry): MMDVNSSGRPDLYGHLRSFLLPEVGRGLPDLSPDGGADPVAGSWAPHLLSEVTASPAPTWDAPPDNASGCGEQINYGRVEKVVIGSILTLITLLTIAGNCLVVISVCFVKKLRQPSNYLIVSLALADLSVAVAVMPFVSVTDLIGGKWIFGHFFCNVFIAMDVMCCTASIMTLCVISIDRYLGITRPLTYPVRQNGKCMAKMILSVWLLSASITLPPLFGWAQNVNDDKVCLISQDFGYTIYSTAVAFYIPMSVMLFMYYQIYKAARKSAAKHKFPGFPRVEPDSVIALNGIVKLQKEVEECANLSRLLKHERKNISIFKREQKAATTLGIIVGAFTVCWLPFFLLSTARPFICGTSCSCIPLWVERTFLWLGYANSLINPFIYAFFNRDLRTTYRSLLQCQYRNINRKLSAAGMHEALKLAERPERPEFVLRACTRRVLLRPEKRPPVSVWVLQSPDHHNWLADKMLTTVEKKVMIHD

[12] = Tmax in Wistar rat plasma at 9 mg/kg per os administered as a single dose by LC-MS/MS analysis; type: ADME, organism-based; conditions: po
[13] = target: T5, Alpha-1A adrenergic receptor (Homo sapiens) (UniProt P35348); assay: Displacement of [3H]-prazosin from human adrenergic alpha1A receptor expressed in CHO cells at 10^-6 M after 60 mins by scintillation counting method relative to control; type: cell-based
T5 sequence (whole entry): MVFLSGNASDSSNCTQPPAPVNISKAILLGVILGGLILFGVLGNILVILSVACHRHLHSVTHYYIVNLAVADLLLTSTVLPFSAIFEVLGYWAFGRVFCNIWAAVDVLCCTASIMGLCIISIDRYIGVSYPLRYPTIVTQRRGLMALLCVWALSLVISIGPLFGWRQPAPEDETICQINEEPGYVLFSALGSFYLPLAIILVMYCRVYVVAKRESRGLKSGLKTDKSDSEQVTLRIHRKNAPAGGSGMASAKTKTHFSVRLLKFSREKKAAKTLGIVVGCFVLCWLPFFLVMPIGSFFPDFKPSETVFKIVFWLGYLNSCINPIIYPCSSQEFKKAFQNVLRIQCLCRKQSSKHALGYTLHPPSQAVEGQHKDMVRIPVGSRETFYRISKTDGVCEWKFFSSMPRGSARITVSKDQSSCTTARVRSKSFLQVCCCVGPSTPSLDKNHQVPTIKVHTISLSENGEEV

[14] = target: Alpha-2C adrenergic receptor (Homo sapiens) (UniProt P18825); assay: Displacement of [3H]-RX 821002 from human adrenergic alpha2C receptor expressed in CHO cells at 10^-6 M after 60 mins by scintillation counting method relative to control; type: cell-based
Sequence of Alpha-2C adrenergic receptor (Homo sapiens) (P18825 whole entry): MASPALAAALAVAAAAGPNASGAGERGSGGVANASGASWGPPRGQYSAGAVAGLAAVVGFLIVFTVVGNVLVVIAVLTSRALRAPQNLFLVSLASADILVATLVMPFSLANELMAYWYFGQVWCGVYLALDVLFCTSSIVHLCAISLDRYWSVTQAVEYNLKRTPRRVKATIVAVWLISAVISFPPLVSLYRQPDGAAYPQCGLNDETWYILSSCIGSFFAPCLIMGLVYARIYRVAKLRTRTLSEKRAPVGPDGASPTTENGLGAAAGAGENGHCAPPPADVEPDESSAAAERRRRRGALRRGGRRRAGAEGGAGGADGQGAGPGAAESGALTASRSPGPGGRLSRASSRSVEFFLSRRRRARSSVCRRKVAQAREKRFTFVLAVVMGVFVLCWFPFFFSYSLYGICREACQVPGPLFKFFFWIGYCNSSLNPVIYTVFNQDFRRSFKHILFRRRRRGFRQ

[15] = target: 5-hydroxytryptamine receptor 3A (Homo sapiens) (UniProt P46098); assay: Displacement of [3H]BRL 43694 from human 5-HT3 receptor expressed in CHO cells at 10^-6 M after 120 mins by scintillation counting analysis relative to control; type: cell-based
Sequence of 5-hydroxytryptamine receptor 3A (Homo sapiens) (P46098 whole entry): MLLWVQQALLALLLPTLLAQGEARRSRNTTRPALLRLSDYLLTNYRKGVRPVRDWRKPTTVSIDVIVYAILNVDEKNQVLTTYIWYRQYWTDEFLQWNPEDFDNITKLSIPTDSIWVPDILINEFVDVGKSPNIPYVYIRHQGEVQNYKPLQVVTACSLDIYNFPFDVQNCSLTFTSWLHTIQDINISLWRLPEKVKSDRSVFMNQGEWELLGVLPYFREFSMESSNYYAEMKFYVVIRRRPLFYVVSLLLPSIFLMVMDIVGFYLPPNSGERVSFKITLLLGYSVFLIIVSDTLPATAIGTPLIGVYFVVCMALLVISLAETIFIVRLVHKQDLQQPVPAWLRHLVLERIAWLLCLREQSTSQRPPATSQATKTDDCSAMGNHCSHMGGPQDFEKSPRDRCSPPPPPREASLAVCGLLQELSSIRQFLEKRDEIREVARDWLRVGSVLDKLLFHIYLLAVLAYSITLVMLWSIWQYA

[16] = target: Sodium-dependent noradrenaline transporter (Homo sapiens) (UniProt P23975); assay: Displacement of [3H]-nisoxetine from human NET expressed in CHO cells at 10^-6 M after 120 mins by scintillation counting method relative to control; type: cell-based
Sequence of Sodium-dependent noradrenaline transporter (Homo sapiens) (P23975 whole entry): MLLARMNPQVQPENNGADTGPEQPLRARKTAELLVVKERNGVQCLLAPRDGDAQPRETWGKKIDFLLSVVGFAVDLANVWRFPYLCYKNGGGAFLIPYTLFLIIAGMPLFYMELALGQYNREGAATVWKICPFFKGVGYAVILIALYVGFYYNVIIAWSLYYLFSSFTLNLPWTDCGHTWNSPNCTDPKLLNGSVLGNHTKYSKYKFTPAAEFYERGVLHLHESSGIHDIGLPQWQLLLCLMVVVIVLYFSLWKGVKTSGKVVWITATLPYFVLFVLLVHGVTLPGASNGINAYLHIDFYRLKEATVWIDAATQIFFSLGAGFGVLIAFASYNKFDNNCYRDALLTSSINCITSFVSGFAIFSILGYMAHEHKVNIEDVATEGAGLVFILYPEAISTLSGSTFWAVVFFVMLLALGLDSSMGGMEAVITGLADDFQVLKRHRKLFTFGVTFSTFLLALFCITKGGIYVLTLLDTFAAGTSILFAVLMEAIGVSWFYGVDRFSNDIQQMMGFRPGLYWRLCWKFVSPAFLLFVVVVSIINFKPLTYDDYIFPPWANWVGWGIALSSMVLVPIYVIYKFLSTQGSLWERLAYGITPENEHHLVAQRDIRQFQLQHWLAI

[17] = target: D(3) dopamine receptor (Homo sapiens) (UniProt P35462); assay: Antagonist activity at human D3R expressed in CHO-K1 cells assessed as inhibition of dopamine induced cAMP accumulation after 30 mins by HTRF method; type: functional, cell-based
[18] = target: T3, 5-hydroxytryptamine receptor 6; assay: Antagonist activity at human 5-HT6R expressed in CHO-K1 cells assessed as inhibition of serotonin-induced cAMP accumulation at 10^-6 M after 30 mins by chemiluminescence-based assay; type: functional, cell-based
[19] = target: D(2) dopamine receptor (Homo sapiens) (UniProt P14416); assay: Antagonist activity at human D2LR expressed in CHO-K1 cells assessed as inhibition of dopamine-induced calcium flux by fluorimetric method; type: functional, cell-based
[20] = target: T4, 5-hydroxytryptamine receptor 7; assay: Antagonist activity at human 5-HT7R expressed in CHO-K1 cells assessed as inhibition of serotonin-induced cAMP accumulation after 30 mins by chemiluminescence-based assay; type: functional, cell-based
[21] = target: T2, 5-hydroxytryptamine receptor 1A (Homo sapiens); assay: Antagonist activity at human 5-HT1AR expressed in mouse BA/F3 cells assessed as inhibition of serotonin-induced calcium flux by fluorimetric method; type: functional, cell-based
[22] = target: T3, 5-hydroxytryptamine receptor 6; assay: biochemical
Description: Displacement of [3H]-LSD from human 5-HT6R expressed in HEK293 cell membranes after 1 hr at 37 degC by microbeta counting method

[23] = target: 5-hydroxytryptamine receptor 2A (Homo sapiens, UniProt P28223); assay: Antagonist activity at human 5-HT2AR expressed in HEK293 cells assessed as inhibition of serotonin-induced calcium flux at 10^-6 M after 30 mins by HTRF method; type: functional, cell-based
Sequence of 5-hydroxytryptamine receptor 2A (P28223 whole entry): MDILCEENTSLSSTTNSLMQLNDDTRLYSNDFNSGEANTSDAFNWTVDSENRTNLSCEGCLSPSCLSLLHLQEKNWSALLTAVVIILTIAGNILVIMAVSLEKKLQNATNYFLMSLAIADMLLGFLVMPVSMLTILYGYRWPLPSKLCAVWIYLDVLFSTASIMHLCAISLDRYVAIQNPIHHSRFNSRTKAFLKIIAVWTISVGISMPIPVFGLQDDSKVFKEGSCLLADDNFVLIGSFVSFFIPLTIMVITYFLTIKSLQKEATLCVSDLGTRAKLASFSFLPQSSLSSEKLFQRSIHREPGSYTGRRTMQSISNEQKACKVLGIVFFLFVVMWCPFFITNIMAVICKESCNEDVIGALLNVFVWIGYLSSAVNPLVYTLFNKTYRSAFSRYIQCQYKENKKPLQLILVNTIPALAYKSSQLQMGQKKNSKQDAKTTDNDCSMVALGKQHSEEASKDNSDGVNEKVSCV

[24] = target: T3, 5-hydroxytryptamine receptor 6; assay: Antagonist activity at human 5-HT6R expressed in CHO-K1 cells assessed as inhibition of serotonin-induced cAMP accumulation after 30 mins by chemiluminescence-based assay; type: functional, cell-based

Compound `O=S(=O)(c1cncc2ccccc12)N1CCC[C@H]1CCN1CCN(c2cccc3sccc23)CC1` has an EC50 [1] of 28.3 nM, a Kb [2] of 28.3 nM and a minimal effective dose [3] of 1 mg/kg. For the same compound, the inhibition [4] was 98%, the inhibition [5] was 92% and the Cmax [6] was 54 nM. It also gave an inhibition [7] of 6%, a Kb [8] of 2.8 nM and an inhibition [9] of 23%. For the same compound, the inhibition [10] was 73%, the inhibition [11] was 100% and the Tmax [12] was 10 min. It also gave an inhibition [13] of 94%, an inhibition [14] of 99% and an inhibition [15] of 15%. The inhibition [16] was 11%.

In the case of `O=S(=O)(c1cncc2ccccc12)N1CCC[C@H]1CCN1CCN(c2nsc3ccccc23)CC1`, the Kb [17] is reported as 8.6 nM, the inhibition [18] is reported as 23% and the Kb [19] is reported as 0.42 nM. The Kb [20] was 2.5 nM, the Kb [21] was 11 nM and the Ki [22] was 313 nM. It also gave an inhibition [23] of 100% and a Kb [24] of 974 nM.
